From patent US11026940B2, “Compositions for the mobilization, homing, expansion and differentiation of stem cells and methods of using the same” (Ampio Pharmaceuticals, Inc., priority 2013, dated 2021)

Key:
[1] = system: Bone marrow derived human mesenchymal stem cells; assay: Migration (invasion) assay using pretreated stem cells, transwell, calcein AM fluorescence; assay type: cell-based; conditions: for mean FU: cells pretreated 72 hours, migration 24 hours; for FU 1: replicate 1; for FU 2: replicate 2; for FU 3: replicate 3
Experimental: This experiment will be designed to establish if migration of MSC is altered as well.
• Passage 5 Bone marrow derived human mesenchymal stem cells (HUXMA-01001, Cyagen Biosciences, Sunnyvale Calif.) • TheraPEAK MSCGM chemically defined Stem cell medium (190632 Lonza) • Lonza MSGM, Gibco RPMI, Gibco Defined fetal bovine serum. • 10 mM Cobalt chloride in saline, sterile filtered (Sigma) • Saline or 0.9% Sodium chloride for injection ZR Flush (Excelsior Medical, Neptune N.J.) • 0.2 μM syringe filters • Hepes buffered saline, Trypsin/EDTA, Trypsin neutralizing solution (Lonza reagent pack) • 25 and 175 cm^2 tissue culture flasks • pipettes and sterile tips • Tissue culture hood, humidified CO2 incubator, water or bead bath • 8.0 um Thincert tissue culture inserts and 24 well tissue culture plates (Greiner) • 50 μg Calcein AM vials (BD Biosciences) • DMSO (Sigma) Cell Expansion: • Passage 5 HUXMA cells were removed from liquid nitrogen storage and expanded in 175 cm^2 flasks containing 40 mls TheraPEAK MSCGM until 80-90% confluence. • Trypsinize cells using standard protocol and proceed to the next step. Treatment of Cells: • Prepare the following working dilutions in saline for injection from the stocks listed above. • Saline • 800 uM Cobalt Chloride in saline • Neat Ampion • Warm dilutions and Lonza MSCGM to 37° C. in bead bath. • Prepare a cell suspension of HUXMA stem cells in warmed MSCGM medium. • Count and then bring up 250,000 from the cell suspension in 4 mls warmed MSCGM. • Add the diluted cell solution to a 25 cm^2 tissue culture flasks. • Add 1 ml of the appropriate working dilution to the flask. • Incubate at 37° C. and 5% CO2 for 72 hours. Invasion Assay: • Remove the cells from the flask with trypsin and place in 600 μl RPMI+0.5% FBS. • Add 200 μl of the resulting cell suspension to the upper chamber of thinserts (3 inserts per treatment group) resting in a 24 well tissue culture plate. • Add 600 μl RPMI+0.5% FBS to the bottom chamber of the transwell system. • Add 66 μl of one the following solutions to the bottom chamber for each treatment group. • 550 ng/ml SDF (final 50 ng/ml) • 110 ng/ml TGF beta3 (final 10 ng/ml) • Serum (final 10%) • Incubate the plate for 24 hours at 37° C. and 5% CO2. Labeling and Cell Detection. • Remove two calcein AM vials and add 20 μl DMSO. • Transfer the contents of both vials to 12.5 ml RPMI containing 0.2% BSA. • Place 450 μl of the calcein AM solution (8 μM) in each well of a 24 well tissue culture plate. • Transfer the inserts from above to the wells containing calcein AM and incubate 45 minutes at 37° C. and 5% CO2. • After loading the cells with calcein AM, transfer the inserts to 24 well tissue culture plate wells containing 450 μl trypsin EDTA and incubate for another 10 minutes. • Discard inserts then add 450 μl trypsin neutralizing solution to each well. • Transfer 250 μl of the resulting solution to a 96 well black, flat bottom plate well (each reaction in triplicate). • Read fluorescence at 485 nm excitation and 530 nm emission.

CXCL12 = CXCL12 transcription by MSC in hanging drop (3D) culture, RTPCR; assay type: cell-based, human; conditions: Actin normalization, 4 days
Experimental: (§1) This effect is more pronounced if the cells are grown directly on plastic in a 2D conformation. In this example, MSCs are cultured in hanging drop cultures in the presence of Ampion™ and then mRNA is evaluated by RTPCR.
(§2) Materials: • Passage 5 Bone marrow derived human mesenchymal stem cells (HUXMA-01001, Cyagen Biosciences, Sunnyvale Calif.) • Mesenchymal Stem Cell Chondrogenic Differentiation medium (GUXMX-90041, Cyagen Biosciences, Sunnyvale Calif.) • TheraPEAK MSCGM chemically defined Stem cell medium (190632 Lonza) • Lonza MSGM (contains serum) • 10 mM Cobalt chloride in saline, sterile filtered (Sigma) • Saline or 0.9% Sodium chloride for injection ZR Flush (Excelsior Medical, Neptune N.J.) • 0.2 μM syringe filters • Hepes buffered saline, Trypsin/EDTA, Trypsin neutralizing solution (Lonza reagent pack) • 182 cm^2 tissue culture flasks • pipettes and sterile tips • Tissue culture hood, humidified CO2 incubator, water or bead bath • 10 cm^2 petri dishes • Qiagen RNeasy plus spin columns (Qiagen 74134) • Qiagen RT^2 qPCR primer pairs for CXCR4, CXCL12, Collagen 2A1, MMP14, MMP13, Aggrecan, IGA4, GAPDH, and Actin B • Roche Sybr green I master mix and Invitrogen Superscript VILO master mix. • Roche 480 lightcycler Cell Expansion: • Passage 5 HUXMA cells were removed from liquid nitrogen storage and expanded in 182 cm^2 flasks containing 40 mls TheraPEAK MSCGM until 80-90% confluence. • Trypsinize cells using standard protocol and proceed to the next step. […] RNA Isolations and Analysis: • After 4 days, remove the plates from the incubator. • Wash spheroids from the lid with 5 mls of the warm PBS in the bottom of each plate and transfer to 15 ml conical centrifuge tubes. • Spin cells at 1000 RPM for 5 minutes and aspirate the solution. • To each tube, add 350 μl Qiagen RNeasy plus lysis buffer (with 2ME). • Transfer solution to Qiashredder columns and spin at 14,000 rpm for 2 minutes. • Proceed with RNeasy plus protocol following manufacturers recommendations. • Elute RNA from columns using 30 μl RNase free water. cDNA Synthesis and Real Time PCR: • First strand synthesis of cDNA from all samples was then performed following the recommended 20 μl total volume protocol using 10 μl isolated RNA. • All cDNA reactions were then diluted with 30 μl nuclease free water. • Real time PCR was then performed using 5 μl diluted cDNA, Roche Syber green master mix, and Qiagen RT^2 qPCR primer pairs (20 μl total volume). • Relative gene expression determined by delta deta Ct method. […]

CXCR4 = CXCR4 transcription by MSC in hanging drop (3D) culture, RTPCR; assay type: cell-based, human; conditions: Actin normalization, 4 days
Experimental: as §1, §2

[Cl][Co][Cl] [Cobalt, Cobalt chloride]
% increase (migration vs saline) ([1]; chemoattractant 10% FBS): 29.1%
mean FU ([1]; chemoattractant 10% FBS): 343.27 FU
FU 1 ([1]; chemoattractant 10% FBS): 346.49 FU
FU 2 ([1]; chemoattractant 10% FBS): 329.28 FU
FU 3 ([1]; chemoattractant 10% FBS): 354.03 FU
% increase (migration vs saline) ([1]; chemoattractant SDF-1): 1.2%
mean FU ([1]; chemoattractant SDF-1 (final 50 ng/ml)): 255.86 FU
FU 1 ([1]; chemoattractant SDF-1): 215.24 FU
FU 2 ([1]; chemoattractant SDF-1): 267.07 FU
FU 3 ([1]; chemoattractant SDF-1): 285.27 FU
% increase (migration vs saline) ([1]; chemoattractant TGF B3): −6.8%
mean FU ([1]; chemoattractant TGF B3 (final 10 ng/ml)): 286.77 FU
FU 1 ([1]; chemoattractant TGF B3): 274.97 FU
FU 2 ([1]; chemoattractant TGF B3): 288.44 FU
FU 3 ([1]; chemoattractant TGF B3): 296.9 FU
2-ΔΔCp vs saline, CXCL12 (CXCL12): 0.005
regulation, CXCL12 (CXCL12): −219.79
ΔΔCp vs saline, CXCL12 (CXCL12): 7.78
ΔCp, CXCL12 (CXCL12; hanging drop culture): 14.91
2-^ΔΔCp vs saline, CXCR4 (CXCR4): 8.369
regulation, CXCR4 (CXCR4): 8.37
ΔΔCp vs saline, CXCR4 (CXCR4): −3.065
ΔCp, CXCR4 (CXCR4; hanging drop culture): 11.19
